From US20060287252A1, “Substances k01-0509 and process for producing the same” (priority 2004, published 2006)

Assays:
Assay type in all cases: cell-based
[1] = test system: Xanthomonas campestris pv. oryzae KB88
[2] = test system: Micrococcus luteus ATCC 9341; assay: Antibiotic activity by paper disc method; conditions: 10 μg/disc, paper disc 6 mm, nutrient agar, 24 hours cultivation
[3] = test system: enteropathogenic E. coli E2348/69 (wild strain)
[4] = test system: Bacillus subtilis ATCC 6633; assay: Antibiotic activity by paper disc method; conditions: 10 μg/disc, paper disc 6 mm, nutrient agar, 24 hours cultivation
[5] = test system: E. coli NIHJ; assay: Antibiotic activity by paper disc method; conditions: 10 μg/disc, paper disc 6 mm, nutrient agar, 24 hours cultivation

Measured: inhibition zone

CC(NC(=O)C1NC(C)C(=O)NC1CCC(O)C(O)CC1CNC(=N)N1C(N)=O)C(=O)NC(C(=O)O)C(C)C (stereo not shown) [K01-0509-A1 substance]
no inhibition zone: all assays above

CC(NC(=O)C1NC(C)C(=O)NC1CCC(O)C(O)CC1CNC(=N)N1C(N)=O)C(=O)NC(C(=O)O)C(C)C (stereo not shown) [K01-0509-A2 substance]
no inhibition zone: [1] | [3]
